Results from ChEMBL document CHEMBL1139821, “Synthesis and antitubercular activity of lipophilic moxifloxacin and gatifloxacin derivatives” (2007).
Converted amounts (≈) assume the structure as drawn.

The compounds below were run on Mycobacterium tuberculosis (assay: Antitubercular activity against Mycobacterium tuberculosis H37Rv).
Assay type: functional

SMILES	MIC
CCCCCCCCCCCCCCNCCNc1c(F)cc2c(=O)c(C(=O)O)cn(C3CC3)c2c1OC	6.25 µg/mL (≈ 11.8 µM)
CCCCCCCCCCNCCCNc1c(F)cc2c(=O)c(C(=O)O)cn(C3CC3)c2c1OC	0.31 µg/mL (≈ 0.633 µM)
CCCCCCCCCCCCCCNCCCNc1c(F)cc2c(=O)c(C(=O)O)cn(C3CC3)c2c1OC	0.62 µg/mL (≈ 1.14 µM)
CCCCCCNCCCNc1c(F)cc2c(=O)c(C(=O)O)cn(C3CC3)c2c1OC	50 µg/mL (≈ 115 µM)
CCCCCCCCNCCNc1c(F)cc2c(=O)c(C(=O)O)cn(C3CC3)c2c1OC	12.5 µg/mL (≈ 27.9 µM)
CCCCCCNCCNc1c(F)cc2c(=O)c(C(=O)O)cn(C3CC3)c2c1OC	5 µg/mL (≈ 11.9 µM)
CO[C@H]1/C=C/O[C@@]2(C)Oc3c(C)c(O)c4c(O)c(c(/C=N/N5CCN(C)CC5)c(O)c4c3C2=O)NC(=O)/C(C)=C\C=C\[C@H](C)[C@H](O)[C@@H](C)[C@@H](O)[C@@H](C)[C@H](OC(C)=O)[C@@H]1C [RIFAMPIN]	1 µg/mL (≈ 1.22 µM)
CCCCCCCCCCNCCNc1c(F)cc2c(=O)c(C(=O)O)cn(C3CC3)c2c1OC	0.62 µg/mL (≈ 1.3 µM)
CCCCCCCCCCCCNCCNc1c(F)cc2c(=O)c(C(=O)O)cn(C3CC3)c2c1OC	1.25 µg/mL (≈ 2.48 µM)
CCCCCCCCCCCCNCCCNc1c(F)cc2c(=O)c(C(=O)O)cn(C3CC3)c2c1OC	0.62 µg/mL (≈ 1.2 µM)
CCCCCCCCNCCCNc1c(F)cc2c(=O)c(C(=O)O)cn(C3CC3)c2c1OC	1.25 µg/mL (≈ 2.71 µM)
CCCCC(CC)CNCCCNc1c(F)cc2c(=O)c(C(=O)O)cn(C3CC3)c2c1OC (centres undefined)	2.5 µg/mL (≈ 5.42 µM)
CCCCC(CC)CNCCNc1c(F)cc2c(=O)c(C(=O)O)cn(C3CC3)c2c1OC (centres undefined)	0.62 µg/mL (≈ 1.39 µM)
COc1c(N2CCNC(C)C2)c(F)cc2c(=O)c(C(=O)O)cn(C3CC3)c12 (centres undefined) [GATIFLOXACIN]	0.1 µg/mL (≈ 0.266 µM)
